Data published in patent US11981658B2, “Substituted aminopyridine compounds as EGFR inhibitors” (YUHAN CORPORATION, priority 2021, dated 2024).
Read-outs that look alike come from different tables or passages of the source.

What was measured:
EGFR Del19/C797S = EGFR Del19/C797S (Homo sapiens, UniProt P00533, C797S/DEL746-750); test: Biochemical EGFR kinase inhibition assay (Lance Ultra TR-FRET), double mutant del19/C797S
Outline: (§1)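 Step 1: compound in kinase buffer, 0.003–10 μM. Step 2: kinase reaction 1 h at room temperature. Step 4: TR-FRET read at 615/665 nm; IC50 calculated.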

EGFR Del19/T790M/C797S = EGFR Del19/T790M/C797S (Homo sapiens, UniProt P00533, C797S/DEL746-750/T790M); test: Biochemical EGFR kinase inhibition assay (Lance Ultra TR-FRET), triple mutant del19/T790M/C797S
Chain of EGFR Del19/T790M/C797S (P00533 with tags, fused parts or gaps DEL746-750/T790M/C797S): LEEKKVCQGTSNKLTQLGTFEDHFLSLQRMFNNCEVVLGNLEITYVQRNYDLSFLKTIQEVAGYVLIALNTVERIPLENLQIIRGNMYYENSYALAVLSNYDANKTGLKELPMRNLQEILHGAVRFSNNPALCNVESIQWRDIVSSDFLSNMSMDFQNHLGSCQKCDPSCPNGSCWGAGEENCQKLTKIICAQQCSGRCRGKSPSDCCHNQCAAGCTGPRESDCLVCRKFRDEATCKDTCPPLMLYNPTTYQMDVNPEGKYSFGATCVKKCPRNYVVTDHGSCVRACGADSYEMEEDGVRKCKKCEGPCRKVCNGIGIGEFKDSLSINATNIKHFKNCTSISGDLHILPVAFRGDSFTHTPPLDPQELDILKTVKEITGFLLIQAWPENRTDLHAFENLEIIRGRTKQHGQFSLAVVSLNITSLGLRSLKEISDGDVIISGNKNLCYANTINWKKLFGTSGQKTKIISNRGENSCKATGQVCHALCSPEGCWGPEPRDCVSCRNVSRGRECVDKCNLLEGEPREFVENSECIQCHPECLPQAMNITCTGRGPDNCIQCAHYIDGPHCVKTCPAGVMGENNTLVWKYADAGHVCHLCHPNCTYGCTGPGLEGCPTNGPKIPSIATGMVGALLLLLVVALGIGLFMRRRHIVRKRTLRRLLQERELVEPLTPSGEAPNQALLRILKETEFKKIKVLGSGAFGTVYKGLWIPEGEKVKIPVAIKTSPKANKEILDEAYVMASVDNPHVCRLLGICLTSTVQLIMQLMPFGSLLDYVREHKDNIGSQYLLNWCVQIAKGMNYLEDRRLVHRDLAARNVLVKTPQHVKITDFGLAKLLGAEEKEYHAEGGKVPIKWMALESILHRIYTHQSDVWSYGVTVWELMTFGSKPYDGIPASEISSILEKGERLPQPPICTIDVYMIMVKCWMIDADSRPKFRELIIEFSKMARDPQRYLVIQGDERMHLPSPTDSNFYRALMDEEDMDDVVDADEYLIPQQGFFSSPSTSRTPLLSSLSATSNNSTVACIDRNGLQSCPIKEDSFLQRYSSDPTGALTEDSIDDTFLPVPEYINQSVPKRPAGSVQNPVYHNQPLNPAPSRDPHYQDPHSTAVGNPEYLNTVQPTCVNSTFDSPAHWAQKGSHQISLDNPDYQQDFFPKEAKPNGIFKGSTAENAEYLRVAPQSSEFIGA
Outline: as §1

EGFR L858R/C797S = EGFR L858R/C797S (Homo sapiens, UniProt P00533, C797S/L858R); test: Biochemical EGFR kinase inhibition assay (Lance Ultra TR-FRET), double mutant L858R/C797S
Chain of EGFR L858R/C797S (P00533 25-1210 C797S/L858R): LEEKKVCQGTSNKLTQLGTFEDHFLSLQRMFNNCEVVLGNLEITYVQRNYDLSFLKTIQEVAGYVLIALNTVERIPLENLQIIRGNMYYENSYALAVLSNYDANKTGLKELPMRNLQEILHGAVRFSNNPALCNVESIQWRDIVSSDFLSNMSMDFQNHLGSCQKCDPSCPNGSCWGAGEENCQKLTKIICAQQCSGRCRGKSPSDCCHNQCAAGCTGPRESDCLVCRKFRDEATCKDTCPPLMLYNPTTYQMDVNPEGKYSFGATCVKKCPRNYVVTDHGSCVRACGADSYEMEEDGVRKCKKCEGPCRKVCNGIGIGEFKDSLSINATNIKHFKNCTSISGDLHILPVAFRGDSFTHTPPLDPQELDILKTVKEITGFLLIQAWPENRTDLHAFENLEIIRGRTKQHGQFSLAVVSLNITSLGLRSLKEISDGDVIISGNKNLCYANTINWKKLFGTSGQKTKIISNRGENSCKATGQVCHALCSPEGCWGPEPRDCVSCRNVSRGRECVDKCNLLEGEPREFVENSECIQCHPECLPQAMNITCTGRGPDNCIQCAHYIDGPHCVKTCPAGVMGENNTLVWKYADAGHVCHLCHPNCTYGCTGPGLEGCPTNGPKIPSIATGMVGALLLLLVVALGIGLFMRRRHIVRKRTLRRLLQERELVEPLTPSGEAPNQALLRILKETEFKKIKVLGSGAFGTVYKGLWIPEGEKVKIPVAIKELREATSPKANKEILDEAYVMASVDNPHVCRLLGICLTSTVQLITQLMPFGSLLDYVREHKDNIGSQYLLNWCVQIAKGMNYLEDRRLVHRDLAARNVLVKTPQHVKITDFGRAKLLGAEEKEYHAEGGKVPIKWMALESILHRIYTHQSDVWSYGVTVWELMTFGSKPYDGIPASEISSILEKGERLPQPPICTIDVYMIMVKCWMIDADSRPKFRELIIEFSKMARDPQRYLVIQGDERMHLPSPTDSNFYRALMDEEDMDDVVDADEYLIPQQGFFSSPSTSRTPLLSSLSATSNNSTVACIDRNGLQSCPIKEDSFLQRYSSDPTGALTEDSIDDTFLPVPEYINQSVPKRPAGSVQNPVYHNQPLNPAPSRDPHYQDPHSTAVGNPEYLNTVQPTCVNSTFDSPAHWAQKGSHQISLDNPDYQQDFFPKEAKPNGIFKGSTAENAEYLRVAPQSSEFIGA
Outline: as §1

EGFR wildtype (WT) = EGFR wildtype (WT) (Homo sapiens, UniProt P00533); test: Biochemical EGFR kinase inhibition assay (Lance Ultra TR-FRET), wildtype
Chain of EGFR wildtype (WT) (P00533 25-1210): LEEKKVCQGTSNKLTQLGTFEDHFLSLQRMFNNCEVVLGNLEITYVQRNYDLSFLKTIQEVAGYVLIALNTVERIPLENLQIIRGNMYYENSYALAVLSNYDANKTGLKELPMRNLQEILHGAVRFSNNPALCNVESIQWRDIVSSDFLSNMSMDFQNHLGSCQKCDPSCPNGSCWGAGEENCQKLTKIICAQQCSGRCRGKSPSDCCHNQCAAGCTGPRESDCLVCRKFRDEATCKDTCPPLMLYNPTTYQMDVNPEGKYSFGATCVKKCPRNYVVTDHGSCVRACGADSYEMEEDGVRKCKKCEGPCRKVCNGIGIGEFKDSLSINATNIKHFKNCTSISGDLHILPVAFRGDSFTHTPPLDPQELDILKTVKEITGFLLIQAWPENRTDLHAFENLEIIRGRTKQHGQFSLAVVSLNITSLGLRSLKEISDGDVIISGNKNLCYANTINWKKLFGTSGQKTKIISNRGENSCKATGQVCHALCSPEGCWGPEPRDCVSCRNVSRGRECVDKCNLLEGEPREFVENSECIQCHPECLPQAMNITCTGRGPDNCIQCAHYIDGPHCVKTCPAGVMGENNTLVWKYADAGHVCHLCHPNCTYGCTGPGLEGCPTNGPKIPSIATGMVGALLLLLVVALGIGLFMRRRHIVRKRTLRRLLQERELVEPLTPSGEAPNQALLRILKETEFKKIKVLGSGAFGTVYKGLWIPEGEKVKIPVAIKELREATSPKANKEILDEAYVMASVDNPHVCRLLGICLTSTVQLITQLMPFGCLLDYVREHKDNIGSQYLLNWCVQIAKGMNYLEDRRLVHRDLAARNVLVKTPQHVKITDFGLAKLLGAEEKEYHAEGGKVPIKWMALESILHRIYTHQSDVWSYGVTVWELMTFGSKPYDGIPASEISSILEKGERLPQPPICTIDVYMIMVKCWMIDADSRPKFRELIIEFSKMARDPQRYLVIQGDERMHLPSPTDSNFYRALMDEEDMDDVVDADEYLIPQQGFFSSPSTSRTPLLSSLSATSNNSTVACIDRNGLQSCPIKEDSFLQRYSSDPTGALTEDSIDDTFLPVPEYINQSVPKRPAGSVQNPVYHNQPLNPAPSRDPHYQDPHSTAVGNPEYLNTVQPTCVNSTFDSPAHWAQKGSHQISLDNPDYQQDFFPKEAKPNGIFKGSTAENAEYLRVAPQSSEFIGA
Outline: as §1

EGFR L858R/T790M/C797S = EGFR L858R/T790M/C797S (Homo sapiens, UniProt P00533, C797S/L858R/T790M); test: Biochemical EGFR kinase inhibition assay (Lance Ultra TR-FRET), triple mutant L858R/T790M/C797S
Chain of EGFR L858R/T790M/C797S (P00533 25-1210 T790M/C797S/L858R): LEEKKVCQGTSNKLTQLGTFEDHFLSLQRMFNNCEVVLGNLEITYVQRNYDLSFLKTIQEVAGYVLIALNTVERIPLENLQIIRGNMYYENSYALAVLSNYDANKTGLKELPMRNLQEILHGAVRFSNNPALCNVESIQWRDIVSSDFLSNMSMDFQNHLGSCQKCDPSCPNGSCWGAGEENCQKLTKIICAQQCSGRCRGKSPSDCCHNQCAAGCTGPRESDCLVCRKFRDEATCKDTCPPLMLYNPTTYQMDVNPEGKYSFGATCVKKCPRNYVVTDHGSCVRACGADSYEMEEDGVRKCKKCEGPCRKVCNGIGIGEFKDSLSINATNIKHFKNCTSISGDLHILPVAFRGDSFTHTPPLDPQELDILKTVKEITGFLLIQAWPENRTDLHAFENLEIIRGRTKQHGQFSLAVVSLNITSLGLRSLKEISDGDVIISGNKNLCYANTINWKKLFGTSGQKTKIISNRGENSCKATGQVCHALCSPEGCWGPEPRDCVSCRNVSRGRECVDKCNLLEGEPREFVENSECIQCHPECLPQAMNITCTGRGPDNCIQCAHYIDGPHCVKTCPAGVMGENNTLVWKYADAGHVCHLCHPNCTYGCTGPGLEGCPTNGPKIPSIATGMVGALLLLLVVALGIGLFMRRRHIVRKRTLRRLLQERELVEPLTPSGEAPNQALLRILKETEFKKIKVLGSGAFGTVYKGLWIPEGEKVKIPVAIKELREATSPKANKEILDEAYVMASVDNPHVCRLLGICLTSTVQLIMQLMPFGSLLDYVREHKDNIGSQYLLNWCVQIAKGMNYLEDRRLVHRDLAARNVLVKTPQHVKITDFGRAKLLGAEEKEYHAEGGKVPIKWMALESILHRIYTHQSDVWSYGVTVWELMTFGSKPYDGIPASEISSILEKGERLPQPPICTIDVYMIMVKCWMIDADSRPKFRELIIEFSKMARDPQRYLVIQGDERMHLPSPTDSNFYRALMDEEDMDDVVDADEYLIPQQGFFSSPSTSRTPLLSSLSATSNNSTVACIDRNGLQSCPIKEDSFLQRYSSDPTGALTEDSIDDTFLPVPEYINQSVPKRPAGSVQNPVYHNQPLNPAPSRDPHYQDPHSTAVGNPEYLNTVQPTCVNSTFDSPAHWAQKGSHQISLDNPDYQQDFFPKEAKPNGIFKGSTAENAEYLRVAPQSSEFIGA
Outline: as §1

[1] = ATP at Km, read-out: IC50 Del19/C797S (nM), Km ATP
[2] = IC50 Del19/C797S (nM), 100 μM ATP
[3] = ATP at Km, read-out: IC50 Del19/T790M/C797S (nM), Km ATP
[4] = IC50 Del19/T790M/C797S (nM), 100 μM ATP
[5] = ATP at Km, read-out: IC50 L858R/C797S (nM), Km ATP
[6] = IC50 L858R/C797S (nM), 100 μM ATP
[7] = ATP at Km, read-out: IC50 WT (nM), Km ATP
[8] = ATP at Km, read-out: IC50 L858R/T790M/C797S (nM), Km ATP
[9] = IC50 L858R/T790M/C797S (nM), 100 μM ATP
[10] = Km ATP, read-out: IC50 Del19/C797S (nM), Km ATP
[11] = Km ATP, read-out: IC50 Del19/T790M/C797S (nM), Km ATP
[12] = Km ATP, read-out: IC50 L858R/C797S (nM), Km ATP
[13] = Km ATP, read-out: IC50 WT (nM), Km ATP
[14] = Km ATP, read-out: IC50 L858R/T790M/C797S (nM), Km ATP

SMILES | IC50 (EGFR Del19/C797S; [1]) [nM] | IC50 (EGFR Del19/C797S; [2]) [nM] | IC50 (EGFR Del19/T790M/C797S; [3]) [nM] | IC50 (EGFR Del19/T790M/C797S; [4]) [nM] | IC50 (EGFR L858R/C797S; [5]) [nM] | IC50 (EGFR L858R/C797S; [6]) [nM] | IC50 (EGFR wildtype (WT); [7]) [nM] | IC50 (EGFR wildtype (WT); IC50 WT (nM), 100 μM ATP) [nM] | IC50 (EGFR L858R/T790M/C797S; [8]) [nM] | IC50 (EGFR L858R/T790M/C797S; [9]) [nM] | IC50 (EGFR Del19/C797S; Km ATP, read-out: IC50 Del19/C797S (nM) Km ATP) [nM] | IC50 (EGFR Del19/T790M/C797S; Km ATP, read-out: IC50 Del19/T790M/C797S (nM) Km ATP) [nM] | IC50 (EGFR L858R/C797S; Km ATP, read-out: IC50 L858R/C797S (nM) Km ATP) [nM] | IC50 (EGFR wildtype (WT); Km ATP, read-out: IC50 WT (nM) Km ATP) [nM] | IC50 (EGFR L858R/T790M/C797S; Km ATP, read-out: IC50 L858R/T790M/C797S (nM) Km ATP) [nM] | IC50 (EGFR Del19/C797S; [10]) [nM] | IC50 (EGFR Del19/T790M/C797S; [11]) [nM] | IC50 (EGFR L858R/C797S; [12]) [nM] | IC50 (EGFR wildtype (WT); [13]) [nM] | IC50 (EGFR L858R/T790M/C797S; [14]) [nM]
CN(C)C(=O)c1cccc(C#Cc2cnc(Nc3ccnc(-c4cnn(S(=O)(=O)C5CC5)c4)n3)cc2N2CCC(C)(CO)CC2)n1 [Example 264, 6-((6-((2-(1-(Cyclopropylsulfonyl)-1H-pyrazol-4-yl)pyrimidin-4-yl)amino)-4-(4-(hydroxymethyl)-4-methylpiperidin-1-yl)pyridin-3-yl)ethynyl)-N,N-dimethylpicolinamide] | 1 | 1.8 | 0.7 | 0.9 | 1.3 | 14.1 | 9.9 | > 10000 | 0.3 | 0.8 | – | – | – | – | – | – | – | – | – | –
C[C@]1(O)CC[C@@H](Nc2cc(Nc3ccnc(-c4cnn(S(=O)(=O)C5CC5)c4)n3)ncc2C#Cc2cnn(CC(F)F)c2)CC1 [Example 323, (1s,4s)-4-((2-((2-(1-(Cyclopropylsulfonyl)-1H-pyrazol-4-yl)pyrimidin-4-yl)amino)-5-((1-(2,2-difluoroethyl)-1H-pyrazol-4-yl)ethynyl)pyridin-4-yl)amino)-1-methylcyclohexan-1-ol] | 4.5 | 7.4 | 0.3 | 0.6 | 14.3 | 184 | 146 | > 10000 | 0.2 | 0.8 | – | – | – | – | – | – | – | – | – | –
O=S(=O)(C1CC1)n1cc(-c2nccc(Nc3cc(N4CCC(F)(CO)CC4)c(C#Cc4cnn(CC(F)(F)F)c4)cn3)n2)cn1 [Example 342, (1-(2-((2-(1-(Cyclopropylsulfonyl)-1H-pyrazol-4-yl)pyrimidin-4-yl)amino)-5-((1-(2,2,2-trifluoroethyl)-1H-pyrazol-4-yl)ethynyl)pyridin-4-yl)-4-fluoropiperidin-4-yl)methanol] | – | 3.6 | – | 0.9 | – | 11.8 | – | > 10000 | – | 0.8 | – | – | – | – | – | 2.3 | 0.8 | 4.5 | 11 | 0.2

Continued, values first:

IC50 (EGFR Del19/C797S; [1]) [nM] | IC50 (EGFR Del19/C797S; [2]) [nM] | IC50 (EGFR Del19/T790M/C797S; [3]) [nM] | IC50 (EGFR Del19/T790M/C797S; [4]) [nM] | IC50 (EGFR L858R/C797S; [5]) [nM] | IC50 (EGFR L858R/C797S; [6]) [nM] | IC50 (EGFR wildtype (WT); [7]) [nM] | IC50 (EGFR wildtype (WT); IC50 WT (nM), 100 μM ATP) [nM] | IC50 (EGFR L858R/T790M/C797S; [8]) [nM] | IC50 (EGFR L858R/T790M/C797S; [9]) [nM] | IC50 (EGFR Del19/C797S; Km ATP, read-out: IC50 Del19/C797S (nM) Km ATP) [nM] | IC50 (EGFR Del19/T790M/C797S; Km ATP, read-out: IC50 Del19/T790M/C797S (nM) Km ATP) [nM] | IC50 (EGFR L858R/C797S; Km ATP, read-out: IC50 L858R/C797S (nM) Km ATP) [nM] | IC50 (EGFR wildtype (WT); Km ATP, read-out: IC50 WT (nM) Km ATP) [nM] | IC50 (EGFR L858R/T790M/C797S; Km ATP, read-out: IC50 L858R/T790M/C797S (nM) Km ATP) [nM] | IC50 (EGFR Del19/C797S; [10]) [nM] | IC50 (EGFR Del19/T790M/C797S; [11]) [nM] | IC50 (EGFR L858R/C797S; [12]) [nM] | IC50 (EGFR wildtype (WT); [13]) [nM] | IC50 (EGFR L858R/T790M/C797S; [14]) [nM] | SMILES
8.3 | 28.6 | 5.5 | 23.8 | 4.2 | 39.2 | 50.7 | > 10000 | – | 7.1 | – | – | – | – | – | – | – | – | – | – | O=S(=O)(C1CC1)n1cc(-c2nccc(Nc3cc(N4CCC5(CCCO5)CC4)c(C#Cc4cccnc4)cn3)n2)cn1 [Example 282, 2-(1-(Cyclopropylsulfonyl)-1H-pyrazol-4-yl)-N-(5-(pyridin-3-ylethynyl)-4-(1-oxa-8-azaspiro[4.5]decan-8-yl)pyridin-2-yl)pyrimidin-4-amine]
– | 16.1 | – | 0.6 | – | 137 | – | > 10000 | – | 1.9 | 12.3 | 0.5 | 16.4 | 80.1 | 0.5 | – | – | – | – | – | Cn1cc(C#Cc2cnc(Nc3ccnc(-c4cnn(S(=O)(=O)C5CC5)c4)n3)cc2N[C@H]2CC[C@@H](NCCF)CC2)cn1 [Example 80, N^2-(2-(1-(Cyclopropylsulfonyl)-1H-pyrazol-4-yl)pyrimidin-4-yl)-N^4-((1s, 4s)-4-((2-fluoroethyl)amino)cyclohexyl)-5-((1-methyl-1H-pyrazol-4-yl)ethynyl)pyridine-2,4-diamine]
– | 3.5 | – | 0.4 | – | 25.6 | – | > 10000 | – | 1.2 | – | – | – | – | – | 1.6 | 0.3 | 3.9 | 7.6 | 0.1 | O=S(=O)(C1CC1)n1cc(-c2nccc(Nc3cc(N4CCC5(CCO5)CC4)c(C#Cc4ncc(CN5CCOCC5)cn4)cn3)n2)cn1 [Example 367, 2-(1-(Cyclopropylsulfonyl)-1H-pyrazol-4-yl)-N-(5-((5-(morpholinomethyl)pyrimidin-2-yl)ethynyl)-4-(1-oxa-7-azaspiro[3.5]nonan-7-yl)pyridin-2-yl)pyrimidin-4-amine]
